# According to patent publication US8399425B2, “Alleviating neuropathic pain with EETs and sEH inhibitors” (The Regents of the University of California, priority 2007, dated 2013):
# Experiments:
# [1] = tested on: streptozocin induced neuropathic pain; assay: von Frey test (mechanical allodynia) in streptozocin neuropathic rats; type: in vivo, rat; details: neuropathic pain model
# Experimental: Male Sprague-Dawley rats weighing 250-300 grains were used. Animals were individually housed at UC Davis Animal Resource Facility under standard conditions with free access to food and water, and maintained for at least 1 week before the experiments. Pain was quantified using three tests, the hind paw withdrawal latency test, the mechanical hyperalgesia test and the mechanical allodynia test. All the experiments were performed during the daytime.
# Rats were first trained to the experimental chamber in two separate sessions. On the day of the induction of neuropathy, the animals' basal response to all three tests were measured and then streptozocin (50 mg/kg) was administered intravenously. Animals were then followed over time for the development of neuropathic pain. An inhibitor of sEH was administered subcutaneously one week after the onset of pain symptoms. […] Compounds were formulated by dissolving them in ethanol and mixing with trans free oleic oil. At least six animals per group were used. The Von Frey test was conducted by stimulating the plantar surface of the rats' hind paw with a calibrated filament connected to a force transducer. As this filament is applied the amount of force exerted on the paw increases and the animal withdraws its paw when the force reaches its threshold. […] In the Randal-Selitto test a similar principle is used. The animals' hind paw is placed between a flat surface and a pointed tip of a force transducer. The pointed tip exerts force on the dorsal face of the paw. […] The two tests are complementary, but depend on the activity of different groups of nociceptors.
# Treatments and behavioral nociceptive tests. […] Following baseline measurements, rats were first treated with 200 μl of vehicle or compound-formulated cream by topical application to one hindpaw, LPS ([…] in 50 μl 0.9% NaCl) was injected into the plantar surface of the treated paw. For subcutaneous administration, compounds were injected immediately after intraplantar LPS. […] A probe fitted with a filament that is connected to a force transducer was applied to the plantar hind paw surface through a wire-mesh platform until eliciting a withdrawal reflex. The duration of heat application or the force (gr) necessary to elicit a withdrawal was designated as TWL and MWT. The steroidogenesis inhibitors were applied 2 hours before sEHI and LPS administration. Diabetes was induced by intravenous injection of 50 mg/kg streptozocin (STZ) in saline following baseline measurements. Diabetic animals were tested at least one week after STZ administration. Three measurements were taken from each animal at each time point and average responses were converted to percent analgesia index based on each animals' baseline response.
# rat sEH = target: T1, rat sEH (Rattus norvegicus, UniProt P80299); assay: rat sEH inhibition; type: biochemical
# T1 sequence (P80299 1-554): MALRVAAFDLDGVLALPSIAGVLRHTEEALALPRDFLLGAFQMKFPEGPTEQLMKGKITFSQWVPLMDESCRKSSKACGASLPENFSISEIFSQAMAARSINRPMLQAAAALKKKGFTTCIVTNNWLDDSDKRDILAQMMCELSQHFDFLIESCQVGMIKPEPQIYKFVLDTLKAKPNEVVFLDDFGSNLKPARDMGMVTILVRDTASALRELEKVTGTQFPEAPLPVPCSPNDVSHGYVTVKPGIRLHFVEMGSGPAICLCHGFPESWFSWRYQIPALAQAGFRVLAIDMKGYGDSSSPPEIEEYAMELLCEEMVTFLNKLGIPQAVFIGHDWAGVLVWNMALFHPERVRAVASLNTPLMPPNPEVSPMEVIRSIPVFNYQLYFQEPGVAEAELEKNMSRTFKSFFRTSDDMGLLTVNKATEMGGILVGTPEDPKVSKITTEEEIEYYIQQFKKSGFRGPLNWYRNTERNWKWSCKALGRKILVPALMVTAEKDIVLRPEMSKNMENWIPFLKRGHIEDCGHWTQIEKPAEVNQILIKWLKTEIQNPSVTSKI
# [2] = tested on: streptozocin induced neuropathic pain; assay: mechanical hyperalgesia test (Randal-Selitto) in streptozocin neuropathic rats; type: in vivo, rat
# Experimental: Male Sprague-Dawley rats weighing 250-300 grains were used. Animals were individually housed at UC Davis Animal Resource Facility under standard conditions with free access to food and water, and maintained for at least 1 week before the experiments. Pain was quantified using three tests, the hind paw withdrawal latency test, the mechanical hyperalgesia test and the mechanical allodynia test. All the experiments were performed during the daytime. Rats were first trained to the experimental chamber in two separate sessions. On the day of the induction of neuropathy, the animals' basal response to all three tests were measured and then streptozocin (50 mg/kg) was administered intravenously. Animals were then followed over time for the development of neuropathic pain. An inhibitor of sEH was administered subcutaneously one week after the onset of pain symptoms. […] Pain response was measured at 60, 120, 240 and 480 minutes after the administration of the sEHI. Compounds were formulated by dissolving them in ethanol and mixing with trans free oleic oil. At least six animals per group were used. The Von Frey test was conducted by stimulating the plantar surface of the rats' hind paw with a calibrated filament connected to a force transducer. As this filament is applied the amount of force exerted on the paw increases and the animal withdraws its paw when the force reaches its threshold. […] In the Randal-Selitto test a similar principle is used. The animals' hind paw is placed between a flat surface and a pointed tip of a force transducer. The pointed tip exerts force on the dorsal face of the paw. […] The two tests are complementary, but depend on the activity of different groups of nociceptors.
# sEH [3] = assay: inhibition of sEH; type: biochemical; details: relative to parent compound
# Text: (§1) Any of a number of standard assays for determining epoxide hydrolase activity can be used to determine inhibition of sEHI. […] Suitable in vitro assays are described in Zeldin et al. J. Biol. Chem. 268:6402-6407 (1993). Suitable in vivo assays are described in Zeldin et al., Arch Biochem Biophys 330:87-96 (1996).
# (§2) The enzyme also can be detected based on the binding of specific ligands to the catalytic site which either immobilize the enzyme or label it with a probe such as dansyl, fluoracein, luciferase, green fluorescent protein or other reagent. The enzyme can be assayed by its hydration of EETs, its hydrolysis of an epoxide to give a colored product as described by Dietze et al., 1994, supra, or its hydrolysis of a radioactive surrogate substrate (Borhan et al., 1995, supra). The enzyme also can be detected based on the generation of fluorescent products following the hydrolysis of the epoxide. Numerous methods of epoxide hydrolase detection have been described (see, e.g., Wixtrom, supra).
# (§3) The assays are normally carried out with a recombinant enzyme following affinity purification. They can be carried out in crude tissue homogenates, cell culture or even in vivo, as known in the art and described in the references cited above.
# metabolism and stability = details: in vivo
# sEH [4] = target: T2, sEH (Homo sapiens, UniProt P34913); assay: inhibition of sEH; type: biochemical
# T2 sequence (P34913 1-555): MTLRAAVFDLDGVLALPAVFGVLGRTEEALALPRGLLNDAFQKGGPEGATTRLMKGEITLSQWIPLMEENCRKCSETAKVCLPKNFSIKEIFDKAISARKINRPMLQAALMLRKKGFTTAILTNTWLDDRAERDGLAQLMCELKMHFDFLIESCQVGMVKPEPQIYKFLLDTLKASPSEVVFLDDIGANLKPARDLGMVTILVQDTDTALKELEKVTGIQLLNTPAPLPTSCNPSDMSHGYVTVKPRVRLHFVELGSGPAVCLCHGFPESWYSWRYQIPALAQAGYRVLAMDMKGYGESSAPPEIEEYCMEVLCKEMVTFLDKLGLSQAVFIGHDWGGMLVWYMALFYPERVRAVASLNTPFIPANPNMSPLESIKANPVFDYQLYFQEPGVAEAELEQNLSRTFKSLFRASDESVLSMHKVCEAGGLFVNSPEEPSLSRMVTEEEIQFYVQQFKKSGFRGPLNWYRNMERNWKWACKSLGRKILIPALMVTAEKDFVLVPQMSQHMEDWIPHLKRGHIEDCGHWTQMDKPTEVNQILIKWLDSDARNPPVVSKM
# Text: as §1, §2, §3
SMILES,pain scores of diabetic rats [1],IC50 (rat sEH) [nM],"pain, mechanical hyperalgesia test (FIG. 3) ([2]; 25 mg/kg)",mechanical allodynia induced by diabetic neuropathy (FIG. 3 legend) ([2]; compound 1010 at equivalent dose),fold less active in inhibiting sEH than parent compound (sEH [3]) [fold],metabolic stability (metabolism and stability),activity as inhibitor of sEH (sEH [4])
"CCOCCOCCOCCCCCNC(=O)NC12CC3CC(CC(O)(C3)C1)C2 [compound 1010, reference compound]",not,1160,showed no effectiveness,shows no effectiveness in reducing nociception,250,,
"CCCCCCCCCCCCNC(=O)NC12CC3CC(CC(C3)C1)C2 [ADU, N-Adamantyl-N-dodecyl urea]",,,,,,metabolically stable,particularly high activity on sEH
